{
  "source": "patent US11992469B2",
  "about": "“Targeting mitochondrial dynamics by mitochondrial fusion promoter M1 as a treatment strategy for nervous system injury” (City University of Hong Kong, priority 2020, dated 2024)",
  "key": {"[1]": {"tested_on": "sciatic nerve crush injury (peripheral nerve injury model)", "assay": "Sciatic nerve pinch test after sciatic nerve crush injury", "assay_type": "in vivo, C57BL/6 mice", "details": "3 days after injury", "description": "(§1) FIG. 2 depicts an experimental paradigm for assessing the growth-promoting effects of mitochondrial fusion promoter M1 after peripheral nerve injury. Sciatic nerve crush injury was performed on adult male C57BL/6 mice. Immediately after crush, 20-60 μg of mitochondrial fusion promoter M1 was directly applied on top of the crushed site, followed by a total of 6 administrations (i.e. morning and evening administration with at least 8 hours apart). Sciatic nerve pinch test and axon quantification were performed on day 3 post-injury.\nFIG. 3 depicts data showing that mitochondrial fusion promoter M1 accelerates in vivo axonal regrowth after sciatic nerve crush injury in adult mice. […] Sciatic nerve pinch test and axon quantification were performed 3 days after injury. […]\n(§2) We first confirmed the growth-promoting effects of mitochondrial fusion promoter M1 using sciatic nerve pinch test. The results from sciatic nerve pinch test were subsequently verified by quantifications of GAP-43-positive regenerating axons 3 days after sciatic nerve crush injury.\nFollowing the completion of dosing paradigm of M1, sciatic nerve pinch test was performed on the ipsilateral nerves 3 days after sciatic nerve crush injury. […] The distance (in mm) was recorded from the crushed site to the most distal point of the nerve where initial withdrawal response was generated after pinching (FIG. 3A)."}, "[2]": {"tested_on": "retinal ganglion cells (RGCs)", "assay": "Retinal ganglion cell (RGC) survival after optic nerve crush injury (RBPMS staining)", "assay_type": "in vivo, C57BL/6 mice"}, "[3]": {"tested_on": "adult dorsal root ganglion (DRG) neurons", "assay": "Neurite outgrowth assay in primary cultures of axotomized adult DRG neurons", "assay_type": "cell-based, C57BL/6 mice", "details": "2.5 μM, 17 hours", "description": "FIG. 1 depicts data showing that M1 increases the length of regenerating axons which is directly proportional to the size of mitochondria in DRG neurons. Wildtype adult DRG neurons were treated with M1 at a concentration of 2.5 μM, and 0.1% DMSO was used as vehicle controls. After 17 hours of incubation, cultures were fixed and immunostained with anti-βIII-tubulin antibodies for neurite outgrowth assay. […] Scale bar: 500 μm. […] More than 80 DRG neurons were quantified from each treatment group. Mean±SEM of triplicates. ***P<0.001; Student's t-test. n.s., not significant. CTL, control.\nThe current study aimed to investigate the therapeutic potential of mitochondrial fusion promoter M1 for treating patients with nerve injuries. First, we examined if mitochondrial fusion promoter M1 could enhance the intrinsic growth capacity of adult neurons, a critical determinant for successful axon regeneration after nerve injuries. We used primary cultures of axotomized dorsal root ganglion (DRG) neurons as an in vitro model to assess the extent of neurite outgrowth after treating the neurons with mitochondrial fusion promoter M1. Primary cultures of DRG neurons were prepared from adult C57BL/6 mice (8-12 weeks old). The DRG neurons were first dissected out, digested with collagenase/dispase II solution (Roche Diagnostics), trypsinized and dissociated mechanically by three flame-polish Pasteur pipettes with different diameters. […]\nFor neurite outgrowth assay, 30 non-overlapping images were captured at 10× magnifications using Nikon Ni-E epifluorescence microscope equipped with a motorized stage. Total neurite length of each neuron from each condition were automatically measured using WIS-NeuroMath software (Weizmann Institute of Science). At least 250 neurons were quantified from each condition to obtain the average total neurite length. […]"}, "[4]": {"tested_on": "optic nerve crush injury (CNS injury model)", "assay": "Optogenetic stimulation of RGCs and local field potential (LFP) recordings in superior colliculus after optic nerve crush", "assay_type": "in vivo, mice", "details": "for eye-evoked RMS LFP amplitude in superior colliculus: six weeks after optic nerve crush", "description": "Two weeks before LFP recordings, AAV overexpressing a fusion of channelrhodopsin 2 and mCherry was injected into the injured eye of the mice. […] Blue lines indicated optical stimulation in the injured eye. (B) Eye-evoked root-mean-square (RMS) LFP amplitudes were automatically determined using Spike2 software with customized MATLAB program. Administration of M1 markedly elevated the eye-evoked RMS LFP amplitudes compared with vehicle-treated controls. Combination of phosphatase and tensin homolog (Pten) deletion and M1 treatment further increased the RMS LFP amplitudes after optical stimulations of injured RGCs. Mean±SEM (n=4-5 per group). *P<0.05, one-way ANOVA with Bonferroni post-hoc test.\nTo record evoked LFP in SC, mice received intravitreal injection of AAV-ChR2-mCherry […]. Six weeks after optic nerve crush injury, we stimulated the injured RGCs by placing an optical fiber with blue laser at 473 nm illuminated at the periphery of the left eye (injured). Evoked LFPs in response to the optical stimuli from ChR2-overexpressing RGCs were recorded in the SC. There were virtually no LFP amplitudes that could be detected from the vehicle-treated mice (FIG. 7A), which was consistent with the histology results. […] Treating the mice with M1 and Pten deletion restored almost 25% of the maximal LFP amplitude compared with uninjured mice.\nTo optically stimulate the RGCs in vivo, AAV expressing a fusion of channelrhodopsin-2 and mCherry (AAV-ChR2-mCherry) at viral titre of 1×10^13 vg/ml was injected intravitreally into both eyes two weeks before optogenetics experiments. For intravitreal injection, a micropipette was gently inserted into the peripheral retina of the eye, just behind the ora serrata, placed with an angle to avoid damages to the lens. […]\nThe data recorded from the system was used as digital input signals for synchronization of the optogenetics setup. Data were analyzed offline using spike2 software (Version 8) and customized MATLAB program. Root-mean-square (RMS) amplitudes after optical stimulation was calculated (FIG. 7)."}, "[5]": {"tested_on": "dopaminergic neuron-like SH-SY5Y cells", "details": "1-methyl-4-phenyl-pyridinium (MPP+); cited from earlier work"}, "[6]": {"tested_on": "MEF Mfn1−/− or Mfn2−/− cultures", "details": "Mfn1 or Mfn2 knockout; cited from earlier work"}, "[7]": {"tested_on": "sciatic nerve crush injury (peripheral nerve injury model)", "assay": "Quantification of GAP-43-positive regenerating axons after sciatic nerve crush injury", "assay_type": "in vivo, C57BL/6 mice", "details": "3 days after injury; 5 mm distal to crushed site", "description": "as §1\nFIG. 3 depicts data showing that mitochondrial fusion promoter M1 accelerates in vivo axonal regrowth after sciatic nerve crush injury in adult mice. Sciatic nerve crush injury was performed on adult C57BL/6 mice (8-12 weeks old). A total of 6 administrations of mitochondrial fusion promoter M1 was directly applied to the crushed site for 3 consecutive days. Sciatic nerve pinch test and axon quantification were performed 3 days after injury. […]\nas §2"}, "[8]": {"tested_on": "optic nerve crush injury (CNS injury model)", "assay": "Axon regeneration (CTB-555-labelled axons) after optic nerve crush injury", "assay_type": "in vivo, C57BL/6 mice"}},
  "data": [
    {"smiles": "CC(=NNc1c(Cl)cc(Cl)cc1Cl)c1cc(Cl)ccc1O", "note": "[M1]", "values": [
      {"measurement": "dose of maximal effect on distal extent of axonal regrowth (pinch test)", "setting": "[1]", "value": 20, "unit": "µg/day"},
      {"measurement": "increase in most distal axonal regrowth (sciatic nerve pinch test)", "setting": "[1]; 20-60 μg applied to crushed site, 6 administrations", "value": 55, "unit": "%"},
      {"measurement": "RGC survival vs vehicle-treated controls", "setting": "[2]; 14 days after optic nerve crush injury", "value": "more retinal ganglion cells (RGCs) were survived"},
      {"measurement": "RGC survival vs vehicle-treated controls", "setting": "[2]; 28 days after optic nerve crush injury", "value": "more retinal ganglion cells (RGCs) were survived"},
      {"measurement": "cell survival of DRG neurons", "setting": "[3]", "value": "no cell survival effect"},
      {"measurement": "mitochondrial size in DRG neurons (distal axons)", "setting": "[3]", "value": "increase in mitochondrial size"},
      {"measurement": "increase in neurite outgrowth from adult DRG neurons", "setting": "[3]; vs 0.1% DMSO vehicle", "value": 49, "unit": "%"},
      {"measurement": "restored share of maximal LFP amplitude compared with uninjured mice", "setting": "[4]; M1 and Pten deletion", "value": "~25", "unit": "%"},
      {"measurement": "eye-evoked RMS LFP amplitude in superior colliculus", "setting": "[4]; M1-treated mice", "value": "59.82±3.6", "unit": "μV"},
      {"measurement": "eye-evoked RMS LFP amplitude in superior colliculus", "setting": "[4]; Pten-knockout (Pten-KO) and M1-treated mice", "value": "88.36±3.13", "unit": "μV"},
      {"measurement": "protection from MPP+-induced neurotoxicity", "setting": "[5]", "value": "protected"},
      {"measurement": "restoration of mitochondrial fragmentation", "setting": "[6]", "value": "completely restored"},
      {"measurement": "increase in number of GAP-43-positive regenerating axons vs vehicle controls", "setting": "[7]", "value": 2, "unit": "fold"},
      {"measurement": "axon regeneration after optic nerve crush", "setting": "[8]; day 14 post-injury, 1 μg intravitreal at days 0 and 7", "value": "robust axon regeneration"},
      {"measurement": "distance reached by regenerating axons", "setting": "[8]; day 28 post-injury", "value": "reach the optic chiasm"},
      {"measurement": "axon regeneration after optic nerve crush", "setting": "[8]; day 28 post-injury, 1 μg intravitreal at days 0, 7, 14 and 21", "value": "robust axon regeneration"},
      {"measurement": "distance reached by regenerating axons", "setting": "[8]; six weeks after optic nerve crush injury, intravitreal injection", "value": "reaching superior colliculus"}
    ]}
  ]
}
